Consider 1 compound from US6172205A, “Synthetic process toward total synthesis of eleutherobin and its analogues and uses thereof” (The Trustees of Columbia in the City of New York, priority 1998, dated 2001).

pIC50: −log10 of the molar value. Entries after “also recorded” stand apart in the source; their conditions may differ.

In assay [1] the test system is A549-T12 (Taxol-resistant A549). Put plainly: Cytotoxicity by counting cells after 72 h, Taxol-resistant cells. Format: cell-based, human. On the procedure: (§1) Human non-small cell lung carcinoma cells, A549, were maintained in RPMI 1640 containing 10% fetal bovine serum and 1% penicillin-streptomycin (Gibco Laboratories, Grand Island N.Y.) at 37° C. in 7% CO2. The Taxol-resistant cell line A549-T12 was selected for resistance to Taxol and maintained in a final concentration of 12 nM drug (21). Human ovarian carcinoma cells SKOV3 and the MDR variant SKVBL (obtained from Dr. V. Ling) were maintained in α-mem plus ribonucleotides, deoxynucleotides, 15% fetal bovine serum and 1% penicillin-streptomycin (Gibco Laboratories) at 37° C. in 5% CO2. SKVBL cells were maintained in […] vinblastine (Sigma Chemical Co.).
(§2) Taxol-resistant and sensitive cell lines were seeded into 12-well plates at a density of 5×10^4 cells per well and allowed a period of 12 h for attachment prior to treatment. Cells were exposed to 10-fold serial dilutions of each compound (10^-10 to 10^-6 M) for 72 h. Cells were then trypsinized and counted (Coulter counter model ZF0031, Coulter Corp., Miami, Fla.). The IC50 was determined by plotting cell number against log of the drug concentration and this was used to determine the concentration of compound resulting in 50% growth inhibition compared to untreated cells. Each cell line was assayed in a minimum of 3 independent experiments with each compound and the results expressed as the mean IC50.
(§3) The cytotoxic efficacy of eleutherobin and its derivatives (FIG. 6) was evaluated in two drug sensitive human cancer cell lines and their Taxol-resistant counterparts. The results are summarized in Table I in order of decreasing potency. […] The Taxol-resistant cell line SKVBL overexpresses high levels of P-glycoprotein (22). […] The only difference between the two agents is the enantiomeric relationship in the carbohydrate (2'-acetylarabinose) sector (FIG. 6). […] This cell line expressed high levels of MDR1 resulting in Taxol-resistance equal or greater than 1666 -fold compared to the Taxol-sensitive SKOV3 cell line.
(§4) ^a Cytotoxicity determined by counting cells after 72 h drug exposure.

Assay [2] deals with Human ovarian carcinoma cells SKOV3. Put plainly: Cytotoxicity by counting cells after 72 h, Taxol-sensitive cells. Format: cell-based. As to conditions: SK-OV-3, 72 h. On the procedure:
as §1, §2, §4

In assay [3] the test system is SKVBL (MDR variant of SKOV3). The assay can be described thus: Cytotoxicity by counting cells after 72 h, MDR variant cells. The class given is cell-based, human. On the procedure:
as §1, §2, §3, §4

The subject of assay [4] is tubulin / microtubule protein. The assay can be described thus: Tubulin polymerization by turbidity at 350 nm in the absence of GTP. As to conditions: 10 μM, 37 °C, relative to 10 μM Taxol (100%). Format: biochemical, calf. On the procedure: (§5) Eleutherobin and its derivatives were synthesized as described (18,19). Taxol was obtained from the Drug Development Branch, National Cancer Institute (Bethesda, Md.). All compounds were dissolved in dimethyl sulfoxide (Sigma Chemical Co., St. Louis, Mo.) at stock concentrations of 5 mM and stored at -20° C. All control samples contained an equal volume of DMSO. GTP was obtained from Sigma Chemical Co. And dissolved in sterile distilled water at a concentration of 10 mM and stored at -20° C. Microtubule protein was purified from calf brains by two cycles of temperature-dependent assembly and disassembly (20) and stored in liquid nitrogen prior to use. The anti-mouse β-tubulin monoclonal antibody T-4026 was obtained from Sigma Chemical Co.
The ability of each compound to polymerize tubulin was evaluated by recording the change in turbidity of microtubule protein at 350 nm for 80 min in a spectrophotometer (UVIKON, Research Instruments Int., SD, Calif.). One mg of purified microtubule protein was diluted in assembly buffer containing 0.1 M MES, 1 mM EGTA, 0.5 mM MgCl2 and 3 M glycerol, pH 6.6. All compounds were evaluated at a concentration of 10 μM at 37° C. […] Microtubule stability was assessed by the addition of 10 mM Ca^++. changes from t=0-10 min were used to calculate initial slopes from the linear portion of each curve. These values were used to calculate the activity of each compound (relative to the activity of Taxol which was assigned a value of 100%).
The polymerization activity of these compounds was also assessed by determining the slope of the linear portion of each curve at A350 nm (t=0-10 min), and expressing this relative to Taxol (which was assigned a value of 100% (FIG. 8). The order of activity of eleutherobin and derivatives using this method, corroborates the results obtained from cytotoxicity studies.

In assay [5] the test system is microtubule protein. The assay can be described thus: Stability of microtubules against Ca++-induced depolymerization. Format: biochemical, calf. Conditions: 10 mM CaCl2. On the procedure: as §5
The ability of each compound to polymerize tubulin was evaluated by recording the change in turbidity of microtubule protein at 350 nm for 80 min in a spectrophotometer (UVIKON, Research Instruments Int., SD, Calif.). One mg of purified microtubule protein was diluted in assembly buffer containing 0.1 M MES, 1 mM EGTA, 0.5 mM MgCl2 and 3 M glycerol, pH 6.6. All compounds were evaluated at a concentration of 10 μM at 37° C. GTP was used at a final concentration of 1 mM. Microtubule stability was assessed by the addition of 10 mM Ca^++. changes from t=0-10 min were used to calculate initial slopes from the linear portion of each curve. These values were used to calculate the activity of each compound (relative to the activity of Taxol which was assigned a value of 100%).
The ability of each compound to polymerize and/or stabilize microtubules was assessed (FIG. 7). To investigate whether eleutherobin and its derivatives shared the microtubule stabilizing properties of Taxol, 10 mM CaCl2 was added to each sample after maximum microtubule polymerization occurred, and the effects on turbidity recorded spectrophotometrically. A positive control was included in which 1 mM GTP was used to confirm the ability of GTP-stabilized microtubules to undergo Ca^++ induced depolymerization.
The ability of this compound to stabilize microtubules formed in the presence of GTP was examined. After a period of 15 min, 10 mM Ca^++ was added and the change in turbidity recorded.

Assay [6] has as its system tumor cell lines. Conditions: variety of tumor cell lines; cited from earlier work.
Assay [7] deals with MDR1 expressing cell line derived from human colon carcinoma HCT 116 cells. As to conditions: cited from earlier work.
Assay [8] concerns microtubules. Conditions: cited from earlier work.

What is called pIC50 is the negative decadic logarithm of the IC50, by convention in mol/L. Consider `CO[C@]12C=C[C@](C)(O1)[C@@H](OC(=O)/C=C/c1cn(C)cn1)C[C@H]1C(C)=CC[C@H](C(C)C)[C@H]1/C=C\2CO[C@@H]1OC[C@@H](O)[C@@H](O)[C@@H]1OC(C)=O` [Eleutherobin], for which the “fold resistance relative to the parental cell line” value in assay [1] (A549-T12 vs A549, 4320 min) is 1.9 fold; in assay [3] (SKVBL vs SKOV3), not below 1052 fold. In addition, the pIC50 in assay [1] (Homo sapiens, Lung Carcinoma A549, Resistant (A549-T12), 72 h, mean of at least three independent experiments) is 7.91; in assay [2] it was 8.02; in assay [3] (Homo sapiens, SK-OV-3, Ovarian Carcinoma SKOV3, Resistant (SKVBL), 72 h, mean of at least three independent experiments), less than 6.00. Further, in assay [1] (Taxol-resistant, not expressing P-glycoprotein), the “cross-resistance in A549-T12 (in words)” value is given as “neither eleutherobin nor neo-eleutherobin displayed cross-resistance; also recorded: neither of these compounds showed cross-resistance”. Moreover, the “cross-resistance in SKVBL (in words)” value in assay [3] (MDR1 expressing cells, high P-glycoprotein) was “exhibited cross-resistance in an MDR1 expressing cell line; also recorded: demonstrated cross-resistance”. Moreover, the “polymerization activity relative to Taxol” value in assay [4] came out at 94%. Also, in assay [5], the “stabilization against Ca++-induced depolymerization (in words)” value is “stabilized microtubules against Ca^++ -induced depolymerization”. In assay [6], the “potency in tumor cell lines (in words)” value is recorded as “excellent potency in a variety of tumor cell lines”. Moreover, the “cross-resistance in MDR1 expressing HCT 116-derived cells (in words)” value in assay [7] was “demonstrated cross-resistance in an MDR1 expressing cell line”. Further, in assay [8], the “effect on microtubules (in words)” value is given as “potentiates the assembly of stable microtubules resistant to depolymerization; also recorded: promotes the polymerization of stable microtubules”.
